# Laboratory results taken from the supplement of paper PMC10307832.
# Assays:
# Test in all cases: relative viability (nuclei count vs DMSO), 5 days (fraction); higher = more cells survive
# BEN = test system: BEN
# Method in brief: (§1)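 Relative viability divides the nuclei count in treated wells by that in vehicle wells. Lung cancer cell lines were seeded in 1536-well plates, dosed by pin tool the next day, and fixed and stained after 5 days in one step with final 0.05% Triton X-100, 1% formaldehyde and 1 ug/ml Hoechst. Dosing was a single drug or a fixed anchor-drug dose plus five library-drug doses (not always all listed) in √10 steps, and values are medians of duplicate plates imaged at 4×.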
# NCI-H2085 = test system: NCI-H2085
# Method in brief: as §1
# NCI-H1666 = test system: NCI-H1666
# Method in brief: as §1
# NCI-H596 = test system: NCI-H596
# Method in brief: as §1
# HARA = test system: HARA
# Method in brief: as §1
# NCI-H1651 = test system: NCI-H1651
# Method in brief: as §1
# CAL-12T = test system: CAL-12T
# Method in brief: as §1
# NCI-H727 = test system: NCI-H727
# Method in brief: as §1
# RERF-LC-KJ = test system: RERF-LC-KJ
# Method in brief: as §1
# NCI-H1734 = test system: NCI-H1734
# Method in brief: as §1
# NCI-H1975 = test system: NCI-H1975
# Method in brief: as §1
# NCI-H2126 = test system: NCI-H2126
# Method in brief: as §1
# NCI-H647 = test system: NCI-H647
# Method in brief: as §1
# NCI-H1944 = test system: NCI-H1944
# Method in brief: as §1
# NCI-H520 = test system: NCI-H520
# Method in brief: as §1
# A-427 = test system: A-427
# Method in brief: as §1
# NCI-H661 = test system: NCI-H661
# Method in brief: as §1
# NCI-H838 = test system: NCI-H838
# Method in brief: as §1
# NCI-H460 = test system: NCI-H460
# Method in brief: as §1
# LOU-NH91 = test system: LOU-NH91
# Method in brief: as §1
# LCLC-103H = test system: LCLC-103H
# Method in brief: as §1
# ABC-1 = test system: ABC-1
# Method in brief: as §1
# SW 900 = test system: SW 900
# Method in brief: as §1
smiles,measurement,setting,value
Cc1csc(=NC2CCCCC2)n1/N=C/c1ccc(O)c(O)c1O [MIM1] + O=C(c1cc(Cc2n[nH]c(=O)c3ccccc23)ccc1F)N1CCN(C(=O)C2CC2)CC1 [Olaparib] (partner 8 µM),relative viability,BEN; first compound 0.2 µM,1.07
same,relative viability,BEN; first compound 0.6325 µM,1.18
same,relative viability,BEN; first compound 2 µM,1.09
same,relative viability,BEN; first compound 6.325 µM,1.01
same,relative viability,BEN; first compound 20 µM,0.239
same,relative viability,NCI-H2085; first compound 0.2 µM,0.768
same,relative viability,NCI-H2085; first compound 0.6325 µM,0.797
same,relative viability,NCI-H2085; first compound 2 µM,0.771
same,relative viability,NCI-H2085; first compound 6.325 µM,0.596
same,relative viability,NCI-H2085; first compound 20 µM,0.641
same,relative viability,NCI-H1666; first compound 0.2 µM,0.71
same,relative viability,NCI-H1666; first compound 0.6325 µM,0.739
same,relative viability,NCI-H1666; first compound 2 µM,0.665
same,relative viability,NCI-H1666; first compound 6.325 µM,0.72
same,relative viability,NCI-H1666; first compound 20 µM,0.707
same,relative viability,NCI-H596; first compound 0.2 µM,0.741
same,relative viability,NCI-H596; first compound 0.6325 µM,0.73
same,relative viability,NCI-H596; first compound 2 µM,0.694
same,relative viability,NCI-H596; first compound 6.325 µM,0.626
same,relative viability,NCI-H596; first compound 20 µM,0.491
same,relative viability,HARA; first compound 0.2 µM,0.792
same,relative viability,HARA; first compound 0.6325 µM,1.06
same,relative viability,HARA; first compound 2 µM,0.824
same,relative viability,HARA; first compound 6.325 µM,0.187
same,relative viability,HARA; first compound 20 µM,0.177
same,relative viability,NCI-H1651; first compound 0.2 µM,0.184
same,relative viability,NCI-H1651; first compound 0.6325 µM,0.174
same,relative viability,NCI-H1651; first compound 2 µM,0.177
same,relative viability,NCI-H1651; first compound 6.325 µM,0.159
same,relative viability,NCI-H1651; first compound 20 µM,0.153
same,relative viability,CAL-12T; first compound 0.2 µM,0.708
same,relative viability,CAL-12T; first compound 0.6325 µM,0.685
same,relative viability,CAL-12T; first compound 2 µM,0.682
same,relative viability,CAL-12T; first compound 6.325 µM,0.505
same,relative viability,CAL-12T; first compound 20 µM,0.396
same,relative viability,NCI-H727; first compound 0.2 µM,0.7
same,relative viability,NCI-H727; first compound 0.6325 µM,0.721
same,relative viability,NCI-H727; first compound 2 µM,0.526
same,relative viability,NCI-H727; first compound 6.325 µM,0.748
same,relative viability,NCI-H727; first compound 20 µM,0.523
same,relative viability,RERF-LC-KJ; first compound 0.2 µM,0.662
same,relative viability,RERF-LC-KJ; first compound 0.6325 µM,0.557
same,relative viability,RERF-LC-KJ; first compound 2 µM,0.197
same,relative viability,RERF-LC-KJ; first compound 6.325 µM,0.221
same,relative viability,RERF-LC-KJ; first compound 20 µM,0.215
same,relative viability,NCI-H1734; first compound 0.2 µM,0.58
same,relative viability,NCI-H1734; first compound 0.6325 µM,0.632
same,relative viability,NCI-H1734; first compound 2 µM,0.559
same,relative viability,NCI-H1734; first compound 6.325 µM,0.496
same,relative viability,NCI-H1734; first compound 20 µM,0.132
same,relative viability,NCI-H1975; first compound 0.2 µM,0.737
same,relative viability,NCI-H1975; first compound 0.6325 µM,0.755
same,relative viability,NCI-H1975; first compound 2 µM,0.778
same,relative viability,NCI-H1975; first compound 6.325 µM,0.307
same,relative viability,NCI-H1975; first compound 20 µM,0.17
same,relative viability,NCI-H2126; first compound 0.2 µM,0.936
same,relative viability,NCI-H2126; first compound 0.6325 µM,0.879
same,relative viability,NCI-H2126; first compound 2 µM,0.916
same,relative viability,NCI-H2126; first compound 6.325 µM,0.849
same,relative viability,NCI-H2126; first compound 20 µM,0.401
same,relative viability,NCI-H647; first compound 0.2 µM,0.611
same,relative viability,NCI-H647; first compound 0.6325 µM,0.53
same,relative viability,NCI-H647; first compound 2 µM,0.697
same,relative viability,NCI-H647; first compound 6.325 µM,0.369
same,relative viability,NCI-H647; first compound 20 µM,0.0666
same,relative viability,NCI-H1944; first compound 0.2 µM,0.405
same,relative viability,NCI-H1944; first compound 0.6325 µM,0.422
same,relative viability,NCI-H1944; first compound 2 µM,0.352
same,relative viability,NCI-H1944; first compound 6.325 µM,0.32
same,relative viability,NCI-H1944; first compound 20 µM,0.131
same,relative viability,NCI-H520; first compound 0.2 µM,0.333
same,relative viability,NCI-H520; first compound 0.6325 µM,0.346
same,relative viability,NCI-H520; first compound 2 µM,0.349
same,relative viability,NCI-H520; first compound 6.325 µM,0.242
same,relative viability,NCI-H520; first compound 20 µM,0.209
same,relative viability,A-427; first compound 0.2 µM,0.757
same,relative viability,A-427; first compound 0.6325 µM,0.738
same,relative viability,A-427; first compound 2 µM,0.71
same,relative viability,A-427; first compound 6.325 µM,0.671
same,relative viability,A-427; first compound 20 µM,0.281
same,relative viability,NCI-H661; first compound 0.2 µM,0.696
same,relative viability,NCI-H661; first compound 0.6325 µM,0.715
same,relative viability,NCI-H661; first compound 2 µM,0.778
same,relative viability,NCI-H661; first compound 6.325 µM,0.499
same,relative viability,NCI-H661; first compound 20 µM,0.316
same,relative viability,NCI-H838; first compound 0.2 µM,0.731
same,relative viability,NCI-H838; first compound 0.6325 µM,0.944
same,relative viability,NCI-H838; first compound 2 µM,0.85
same,relative viability,NCI-H838; first compound 6.325 µM,0.609
same,relative viability,NCI-H838; first compound 20 µM,0.237
same,relative viability,NCI-H460; first compound 0.2 µM,0.403
same,relative viability,NCI-H460; first compound 0.6325 µM,0.411
same,relative viability,NCI-H460; first compound 2 µM,0.195
same,relative viability,NCI-H460; first compound 6.325 µM,0.213
same,relative viability,NCI-H460; first compound 20 µM,0.0637
same,relative viability,LOU-NH91; first compound 0.2 µM,0.92
same,relative viability,LOU-NH91; first compound 0.6325 µM,0.922
same,relative viability,LOU-NH91; first compound 2 µM,0.596
same,relative viability,LOU-NH91; first compound 6.325 µM,0.589
same,relative viability,LOU-NH91; first compound 20 µM,0.369
same,relative viability,LCLC-103H; first compound 0.2 µM,0.814
same,relative viability,LCLC-103H; first compound 0.6325 µM,0.771
same,relative viability,LCLC-103H; first compound 2 µM,0.782
same,relative viability,LCLC-103H; first compound 6.325 µM,0.532
same,relative viability,LCLC-103H; first compound 20 µM,0.336
same,relative viability,ABC-1; first compound 0.2 µM,0.952
same,relative viability,ABC-1; first compound 0.6325 µM,1.27
same,relative viability,ABC-1; first compound 2 µM,1.03
same,relative viability,ABC-1; first compound 6.325 µM,0.78
same,relative viability,ABC-1; first compound 20 µM,0.388
same,relative viability,SW 900; first compound 0.2 µM,0.968
same,relative viability,SW 900; first compound 0.6325 µM,0.819
same,relative viability,SW 900; first compound 2 µM,0.852
same,relative viability,SW 900; first compound 6.325 µM,0.209
same,relative viability,SW 900; first compound 20 µM,0.181
